In brackets after ≈: the same amount, converted by molar mass.
Key:
[1] = Foam height, Ross-Miles method; type: physicochemical; conditions: 45°C, water with 120 ppm hardness
Method: Since most of the foaming data on surfactants is typically obtained by the Ross-Miles method (Ross, J. and Miles, G.D., am. Soc. for Testing Material Method D1173-53 Philadelphia, PA. (1953); Oil & Soap (1958) 62:1260) the foaming ability of these surfactants was also acquired using this method.
In the Ross-Miles method, 200 mL of a solution of surfactant contained in a pipette of specified dimensions with a 2.9-mm-i.d. orifice is allowed to fall 90 cm onto 50 mL of the same solution contained in a cylindrical vessel maintained at a given temperature (often 60°C) by means of a water jacket. The height of the foam produced in the cylindrical vessel is read immediately after all the solution has run out of the pipette (initial foam height) and then again after a given amount of time (generally, 5 min).
Using this method, the foam production (measured initially) and foam stability (the height after 10 minutes) are reported. […] The foam height is represented in millimeters (mm).

[2] = Krafft point of a 1% dispersion in water; type: physicochemical; conditions: 1% dispersion of the surfactant in water
Method: The temperature at and above which surfactants begin to form micelles instead of precipitates is referred to as Krafft point (Tk) and at this temperature the solubility of a surfactant becomes equal to its CMC.
Krafft point was measured by preparing a 1% dispersion of the surfactant in water. If the surfactant was soluble at room temperature, the solution was cooled to 0°C. […] If it precipitated out, the solution was slowly warmed with stirring in a water bath. The temperature at which the precipitate dissolved was determined to be the Krafft point.
If the Krafft point was above room temperature, the solution was first heated rapidly to dissolve all the surfactant. It was then cooled until precipitation occurred, and was then slowly warmed to determine the Krafft point described above.

[3] = test system: Porphyromonas gingivalis; test: Antimicrobial activity determination (MIC); type: cell-based; conditions: BHI broth, aerobic, 37 degrees C, read-out: Minimimum Inhibitory Concentrations
Method: (§1) The antimicrobial activity of the targeted agents was assessed by determining the minimum inhibitory concentration (MIC). Pure cultures of various strains of oral bacterial species as indicated in Table 3 were combined with serial dilutions of the targeted agents in beef heart infusion broth (BHI); starting bacterial concentrations were approximately 1.0 x 10E6 colony forming units (CFU) per ml. The mixtures were incubated aerobically at 37 degrees C and the optical density (540 nm, path length 1cm) of the cultures was measured at 0.0, 24.0 and 48.0 hr using Bausch and Lomb Spec 20 variable wavelength spectrophotometer.

[4] = test system: Candida albicans; test: Antimicrobial activity determination (MIC); type: cell-based; conditions: BHI broth, aerobic, 37 degrees C, read-out: Minimimum Inhibitory Concentrations
Method: as §1

[5] = test system: Streptococcus sanguis; test: Antimicrobial activity determination (MIC); type: cell-based; conditions: Streptococcus, Streptococcus sanguis; BHI broth, aerobic, 37 degrees C; read-out: Minimimum Inhibitory Concentrations
Method: as §1

[6] = test system: Neisseria subflava; test: Antimicrobial activity determination (MIC); type: cell-based; conditions: BHI broth, aerobic, 37 degrees C, read-out: Minimimum Inhibitory Concentrations
Method: as §1

[7] = test system: Veillonella dispar; test: Antimicrobial activity determination (MIC); type: cell-based; conditions: BHI broth, aerobic, 37 degrees C, read-out: Minimimum Inhibitory Concentrations
Method: as §1

[8] = test system: Actinomyces naeslundii; test: Antimicrobial activity determination (MIC); type: cell-based; conditions: BHI broth, aerobic, 37 degrees C, read-out: Minimimum Inhibitory Concentrations
Method: as §1

[9] = test system: Streptococcus sobrinus; test: Antimicrobial activity determination (MIC); type: cell-based; conditions: BHI broth, aerobic, 37 degrees C, read-out: Minimimum Inhibitory Concentrations
Method: as §1

[10] = test system: Prevotella intermedius; test: Antimicrobial activity determination (MIC); type: cell-based; conditions: Prevotella intermedius; BHI broth, aerobic, 37 degrees C; read-out: Minimimum Inhibitory Concentrations
Method: as §1

What does the source list for `CCCCCCCCCCCCNC(=O)[C@H](O)[C@@H](O)[C@H](O[C@@H]1O[C@H](CO)[C@H](O)[C@H](O)[C@H]1O)[C@H](O)CO` [Dodecyl lactobionamide, N-dodecyl lactobionamide]?
Initial Height ([1]; foam production, measured initially): 160 mm; After 10 Minutes ([1]; foam stability, height after 10 minutes): 6 mm; Krafft Point [2]: 38 °C; MIC [3]: 30 µg/mL (≈ 57.1 µM); MIC [4]: 125 µg/mL (≈ 238 µM); MIC [5]: 125 µg/mL (≈ 238 µM); MIC [6]: 250 µg/mL (≈ 476 µM); MIC [7]: 60 µg/mL (≈ 114 µM); MIC [8]: 60 µg/mL (≈ 114 µM); MIC [9]: 125 µg/mL (≈ 238 µM); MIC [10]: 250 µg/mL (≈ 476 µM)

Reference: EP0551675A1, “Oral hygiene compositions containing antiplaque agents” (UNILEVER N.V., priority 1991, dated 1993)
